Experimental data published in patent publication US20240292836A1, “AGENTS FOR REPELLING, KNOCKING DOWN, AND/OR KILLING BLOOD-SUCKING ARTHROPODS AND USES THEREOF” (The United States of America, as represented by the …, priority 2023, published 2024).
Several values for one entry are separate records, joined by “and”; a condition that tells them apart may be missing. Equal entries are not always repeated.

Key:
[1] = test system: female Aedes aegypti adults; assay: Arm-in-cage cloth-patch in vivo assay (topical repellency); details: for Minimum Effective Dose (MED): Mean ± SEM, lowest dosage with five or fewer bites through repellent-treated cloth in 1-minute exposure, at least three volunteers; for topical repellency (in words): initial screening dose of 0.187 mg/cm^2
Description: Arm-in-Cage Test Cloth-Patch in vivo Assay Pyrethroid-susceptible yellow fever mosquitoes Ae. aegypti (Orlando strain) were reared in the United States Department of Agriculture Mosquito and Fly Research Unit in Gainesville, FL under standard protocols. Three to seven-day-old, starved female mosquitoes were collected using a “draw box” (Posey, K. and Schreck, C. E, 1981, “An airflow apparatus for selecting female mosquitoes for use in repellent and attraction studies” Mosquito News 41: 566-568; US. Department of Agriculture, 1977, Repellent activity of compounds submitted by Walter Reed Army Institute of Research. Part 1. Protection time and minimum effective dosage against Aedes aegypti mosquitoes. Tech. Bull. No. 1549) and were placed in cages at an approximate density 200 mosquitoes/cage. Repellency was determined according to a standard protocol (Bernier, U. R., et al, 2022. “Evaluation and application of repellent-treated uniform/clothing and textiles against vector mosquitoes,” In Advances in Arthropod Repellents (pp. 69-94). Academic Press) and reported as the minimum effective dosage (MED). […] A nylon leg stocking was placed over the arm to prevent direct contact of the repellent-treated cloth patch with the skin. […]. Cloth was treated by placing a rolled bandage (50 cm^2) into each vial containing 1 mL of solution and allowing the patch to absorb the solution completely. The cloth was taped over a 4 by 9-cm opening cut into a vinyl plastic sheet that was draped around the volunteers' arms and taped in place. The cloth was air-dried approximately 15 min before conducting each test. The work reported here is an average of the MED for at least three volunteers. Each volunteer covered his or her arm with a nylon stocking to avoid contact between the skin and the treated cloth and wore a rubber glove to prevent mosquito bites on the hand.
. The minimum effective dose (MED) was determined for each repellent and subject, defined as the lowest concentration that prevents biting). MEDs from each subject were pooled and reported as the average among all replicates/subjects with SEM. A minimum of 3 replicates were performed on at least three human subjects. Written informed consent was obtained for all human subjects used in this study in accordance with IRB protocol #20193320, as approved by the WCG™ IRB.
(§1) Statistical Analyses: Student's T-test was used to compare the means between tested compound and DEET and Icaridin in the arm-in-cage in vivo assay and neurophysiological study.

[2] = test system: female Aedes aegypti adults; details: estimated from a previous report (Licciardi 2006); cited from earlier work
[3] = test system: female Aedes aegypti adults; assay: High-throughput in vitro screening assay, spatial repellency; format: in vivo; details: for 30-minute RD50 compared with that of DEET: 30 minutes, α = 0.05
Description: A high-throughput screening method for evaluating spatial repellency and vapor toxicity, described by Jiang S., et al. (2019, “High-Throughput Screening Method for Evaluating Spatial Repellency and Vapour Toxicity to Mosquitoes,” Med. Vet. Entomol. 33: 388-396), was used for this study. As shown in FIG. 2 of Jiang S., et al., assay tubes were constructed by covering 12.5 cm glass tubes on one side with netting secured by a rubber band. The tubes were used in horizontal orientation. Adult mosquitos 2-7 days old were anesthetized on ice for approximately 5 minutes and 16 females were transferred to each tube. The other end of the tube was then closed with netting and a rubber band.
The conical ends of 50 mL centrifuge tubes (Eppendorf, Enfield, Connecticut, USA) were cut at approximately the 10 mL mark to create the end caps for the assay tubes. […] For repellency tests, filter papers for the “untreated” side of the assay tube received pure acetone, whereas filter papers for the “treated” side received acetone solution containing a dissolved compound of interest. For knockdown tests, both filter papers were treated with acetone solution containing one or more compounds of interest. Acetone on both filter papers served as negative controls.
For repellency assays, filter papers were given 10 minutes of evaporation time before being placed into the end caps with forceps (Jiang S., et al. 2019, Supra). For knockdown assays, filter papers were given 5 minutes of evaporation time before being placed into the end caps. […] Assay tubes were capped such that the cap securely overlapped the glass but approximately 5 mm of space was left between the netting and the filter paper so that the mosquitos could not contact the filter paper.
Assay tubes were placed on a white polystyrene platform with wooden sticks glued flatly across it to prevent the tubes from rolling. A straight black line was drawn down the center of the platform and assay tubes were centered on the line at the beginning of the tests. In repellency assays, data were collected at 15, 30, and 60 minutes after the end caps were placed on the assay tubes. Assay tubes were not disturbed for the entire 60 minutes. At each time point, the number of mosquitos that remained on the treated side was visually assessed and recorded. The treated side was alternated with each set of tests. For repellency tests, DEET at a dose of 100 μg/cm^2 served as the positive control.
For the high-throughput in vitro screening assays, analyses were conducted with R version 4.2.2 statistical software (R Core Team, 2022, “R: a language and environment for statistical computing. R foundation for statistical computing,” Vienna, Austria). Concentrations were calculated in terms of filter paper surface area (μg/cm^2) for repellency assays and in terms of assay tube volume (μg/cm^3) for knockdown assays.
Half-repellent (RD50), half-knockdown (KD50), and half-lethal (LD50) doses were calculated from dose-response curves (DRCs) obtained by four-parameter log-logistic equation models generated using the drc package (Dose Response Curve Analyses Software; Ritz C. et al., 2015, “Dose-response analysis using R,” PLOS ONE 10: e0146021). For repellency test analysis, the upper and lower asymptotes for the proportion of mosquitos remaining on the treated side were fixed at 0.5 and 0, respectively. For KD and mortality test analysis, the upper and lower asymptotes for the proportion of mosquitos knocked down or killed were fixed at 1.0 and 0, respectively. To determine whether RD50, KD50, or LD50 values differed across compounds at each timepoint, a joint model assuming different values for each compound and a null model that assumed a single value for all compounds were compared with a likelihood ratio test.

[4] = test system: female Aedes aegypti adults; assay: High-throughput in vitro screening assay, knockdown and mortality; details: for KD50 (30 min), half-knockdown dose / KD50 (60 min), half-knockdown dose: dose per assay tube volume, 95% CI; for knockdown and mortality activities (in words): in vivo; for time at which knockdown began: FIG. 6A, 6B, 6D
[5] = at 25.00° C.; cited from earlier work
[6] = test system: Aedes aegypti larvae central nervous system; assay: Neurophysiological experiment, nerve firing of mosquito central nervous system
Protocol: Neurophysiological Experiment—Action on Mosquito Central Nervous System All compounds were screened at 100 μM on the central nervous system of 4th instar Aedes aegypti larvae. Nerve firing was reported as the percentage firing compared to a pre-application baseline period that was determined approximately 3 minutes prior to drug application, similar to methods outlined in Norris, E. J. and Bloomquist J. R. (2021, “Recording central neurophysiological output from mosquito larvae for neuropharmacological and insecticide resistance studies,” J. Insect Physiol. 135: 104319). […] Compound potency was characterized by “time-to-nerve block” defined as the first time point where significant nerve block was observed compared to the vehicle control via a Student T-test, p<0.05 as shown in Table 1 and FIG. 2.
as §1

[7] = literature evaluations; cited from earlier work
Vapor pressure = format: physicochemical; details: MFA versus MDMA
[8] = dose per filter paper surface area, 95% CI

Row | Structure (SMILES) | Minimum Effective Dose (MED) [1] | dose at which knockdown might begin [2] | mosquitoes repelled ([3]; 60 minutes, dose of 100 μg/cm^2) [%] | KD50 (30 min), half-knockdown dose [4] [µg/mL] | KD50 (60 min), half-knockdown dose [4] [µg/mL] | vapor pressure [5] [mmHg] | RD50 (30 min), half-repellent dose [3, 8] [μg/cm^2] | 30-minute RD50 compared with that of DEET [3] | topical repellency (in words) [1] | nerve block (in words) ([6]; 100 μM, 4th instar larvae) | knockdown and mortality activities (in words) [4] | safety (in words) [7] | RD50 (60 min), half-repellent dose ([3]; 60 min, dose per filter paper surface area, 95% CI) [μg/cm^2] | spatial repellency (in words) ([3]; highest-tested dose of 100 μg/cm^2) | vapor pressure, times lower than that of MDMA (Vapor pressure) [times] | time at which knockdown began [4] [min] | Time to nerve block ([6]; 100 μM on central nervous system of 4th instar larvae) [min]
1 | CCN(CC)C(=O)c1cccc(C)c1 [DEET, N,N-diethyl-meta-toluamide, reference compound] | 0.0100±0.003 mg/cm^2 and 0.0100 mg/cm^2 | approximately 15 μg/cm^3 | 100 | >15 | >15 |  |  |  |  |  |  |  |  |  |  |  | 
2 | COC(=O)c1ccccc1N(C)C [MDMA, methyl N,N-dimethyl anthranilate] | 0.039 mg/cm^2 |  |  |  |  | 0.01 | 6.58 | significantly lower than that of DEET |  |  |  |  |  |  |  |  | 
3 | CCCCCOC(=O)c1ccccc1 [nPeB, n-pentyl benzoate] | >0.187 mg/cm^2 |  |  | 4.77 | 3.98 |  |  | not significantly different from that of DEET | did not show any topical repellencies | Nerve block was produced by all compounds screened at this concentration, except for compound nPeB | exhibited considerable knockdown and mortality activities |  |  |  |  |  | 
4 | COC(=O)c1ccccc1NC=O [MFA, methyl N-formylanthranilate] | 0.047 mg/cm^2 |  |  |  |  | 0.000013 | >100 |  |  |  |  | No adverse effects to humans have been found | >100 | did not show spatial repellencies | 769 |  | 
5 | CC(C)COC(=O)c1ccccc1 [iBB, iso-butyl benzoate] | >0.187 mg/cm^2 |  |  | 5.26 | 5.29 |  |  | not significantly different from that of DEET | did not show any topical repellencies |  | exhibited considerable knockdown and mortality activities |  |  |  |  | 5 | 
6 | COC(=O)c1ccccc1OC [M2MOB, methyl 2-methoxybenzoate] | 0.049 mg/cm^2 |  |  | >7 | >7 |  |  | not significantly different from that of DEET |  |  |  |  |  |  |  |  | 24
7 | CC(C)CCOC(=O)c1ccccc1 [iPeB, iso-pentyl benzoate] | >0.187 mg/cm^2 |  |  | 3.71 | 3.40 |  |  | not significantly different from that of DEET | did not show any topical repellencies |  | exhibited considerable knockdown and mortality activities |  |  |  |  | 5 | 
